Measurements from BindingDB's records for doi:10.1021/jm9911581 (Cnrs Umr 8532, 2000).

Test system: HIV-1 integrase catalytic core (disintegration assay)
Experiment: Compound was tested in vitro to inhibit human immuno virus-1 (HIV-1) using enzymatic disintegration assay.

Row | Structure (SMILES) | IC50 [µM]
1 | Oc1cccc2ccc(/C=C/c3ccccc3)nc12 [2-Styryl-quinolin-8-ol] | > 100
2 | O=C(O)c1cc(/C=C/c2ccc3ccc(C(=O)O)c(O)c3n2)ccc1O [2-(3-carboxy-4-hydroxystyryl)-8-hydroxyquinoline-7-carboxylic acid] | 2.7
3 | O=C(O)c1ccc2ccc(/C=C/c3ccc(O)cc3)nc2c1O [8-hydroxy-2-(4-hydroxystyryl)quinoline-7-carboxylic acid] | 4.2
4 | O=C(O)c1ccc2ccc(/C=C/c3ccccc3)nc2c1O [8-hydroxy-2-styrylquinoline-7-carboxylic acid] | 3.4
